Experimental data: patent US6596712B2, “Treatment of carcinomas using squalamine in combination with other anti-cancer agents or modalities” (Genaera Corporation, priority 1996, dated 2003)

Tests used:
[1] = test system: Human androgen dependent LNCaP cells; assay: LNCaP xenograft with hormonal ablation (Example 7); type: in vivo, athymic mice
Method: Human androgen dependent LNCaP cells (2×10^6 cells/flank in both flanks) were implanted subcutaneously with an equal volume of Matrigel™ in forty athymic mice. These animals were followed with periodic bleedings until serum human PSA levels exceeded 100 ng/mL and tumor volume measurements exceeded 1000 mm^3 (approximately six weeks after implantation). All animals were then surgically castrated and were randomized into five treatment groups with 8-10 animals per group. One group of animals was not treated further (controls), while a second group immediately began daily intraperitoneal injection of 20 mg/kg/day squalamine (five days per week with a two day respite). A third group of animals began to receive squalamine (20 mg/kg/day squalamine, five days per week with a two day respite) when their serum human PSA levels reached values of 4-10 ng/mL. A fourth group of mice began squalamine treatment (20 mg/kg/day squalamine, five days per week with a two day respite)when serum human PSA values reached 20-40 ng/mL, and a fifth group began squalamine treatment when serum human PSA levels reached 100 ng/mL.
Similarly, the serum human PSA levels fell to undetectable levels with a nadir at two weeks after castration, but by week three the serum human PSA levels began to rise in all control animals. […] For animals treated with squalamine concomitant with the fall in human PSA after castration, six of ten animals were treated for 6-10 weeks. Three mice in this group never experienced a post-orchiectomy PSA nadir, and one mouse experienced an early death of unknown etiology. The remaining six animals in this group experienced a post-orchiectomy PSA nadir of less than 1 ng/mL and maintained this negligible level for the duration of squalamine therapy.
Tissue histology was carried out on the tumor masses (or the site of tumor implantation, in the instance of the animals which underwent successful squalamine treatment) to examine the distribution of integrins in these tissues. […] Thus, part of the mechanism by which squalamine successfully alters LNCaP tumor growth is by interfering with cellular integrin expression that is associated with tumor aggressiveness.

NHE = assay: Direct addition to PS 120 fibroblasts during measurement of exchanger activity; type: cell-based; settings: no pretreatment
From the text: Direct addition of squalamine to PS 120 fibroblasts during measurement of the exchanger activity had no effect.

[2] = tissue histology after successful squalamine treatment

CC(C)[C@@H](CC[C@@H](C)[C@H]1CC[C@H]2[C@@H]3[C@H](O)C[C@H]4C[C@@H](NCCCNCCCCN)CC[C@]4(C)[C@H]3CC[C@]12C)OS(=O)(=O)O [Squalamine, squalamine]
post-orchiectomy PSA nadir ([1]; 20 mg/kg/day i.p. five days per week, 6-10 weeks from castration, six animals): less than 1 ng/mL | tumor masses ([1]; 20 mg/kg/day i.p. from castration): eventually disappeared in all six animals | expression of the integrin α6β4 [1, 2]: increase | expression of the integrin αvβ3 [1, 2]: reduction in the expression | effect of direct addition during measurement of exchanger activity (NHE): no effect
